Data: patent US10526271B2, “Compositions and methods related to half salts of herbicidal carboxylic acids” (Dow AgroSciences LLC, priority 2015, dated 2020)

How the values were obtained:
[1] = Volatility by thermogravometric analysis (TGA) weight loss at elevated temperature; format: physicochemical; details: 120° C., linear region of weight loss curve
Protocol: The volatility of the 2,4-D potassium half salt (as a concentrated aqueous suspension) was compared to that of 2,4-D acid (as technical solid), 2,4-D ethylhexyl ester (EHE, as technical liquid), and 2,4-D dimethylammonium (DMA) and 2,4-D dimethylethanolammonium (DMEA) salts (both as concentrated aqueous solutions) by thermogravometric analysis (TGA) weight loss at elevated temperature. Each of the 2,4-D samples was added in turn (approximately 25-30 mg) to the reservoir cup of a TA Instruments Model 2050 TGA instrument. The temperature was maintained at 120° C. and the weight loss was recorded as a function of time.
For the water-containing samples, rapid weight loss was observed during water removal followed by a linear region (constant rate of loss). Linear curve fitting was applied in this region of the curve to determine rate of 2,4-D loss in μg/min.

redroot pigweed (AMARE) = test: Greenhouse postemergence weed control, redroot pigweed; format: in vivo; details: 800 g ae/ha, no adjuvant, 21 DAA
Protocol: (§1) Plant material was propagated in the Indianapolis greenhouses under warm temperature conditions of 26 to 28° C. and a 16 hour day length and 8 hour dark cycle. Natural light was supplemented with 1000-watt metal halide overhead lamps with an average illumination of 500 μE m−2 s−1 photosynthetic active radiation for 16 consecutive hours each day. Seeds of each species were planted in 10 cm square pots containing a potting soil, Metro-Mix 360®. Metro-mix 360® consists of Canadian sphagnum peat moss, coarse perlite, bark ash, a starter nutrient charge (with gypsum), a slow-release nitrogen fertilizer and dolomitic limestone. Plants were top watered prior to treatment and sub-irrigated after treatment. Plant material was fertilized three times a week with Jack's fertilizer solution (Jack's Professional 15-5-15 4 Ca 2 Mg fertilizer manufactured by JR PETERS INC.; 6656 Grant Way; Allentown, Pa. 18106). Appropriate amounts of herbicides were weighed and diluted with Indianapolis tap water.
(§2) All treatments were applied to selected plant species with a track sprayer (Generation III Research Sprayer manufactured by DeVries Manufacturing in Hollandale, Minn., USA) located in building 306, laboratory E1-483, at the Dow AgroSciences facility in Indianapolis, Ind. The track sprayer was calibrated to deliver 140 L/ha at 40 psi ([…]) pressure utilizing an 8002E even, flat fan nozzle. Track sprayer speed was set at 1.6 mph ([…]). Applications were made to replicates of each species in a randomized complete block design, with 4 replications per treatment.
(§3) All species were evaluated at 15 or 21 days after application (DAA). The treated plants and control plants were evaluated using a rating scale of 0-100%, wherein 0% indicates no injury or control of the vegetation and 100% indicates complete death of the plants.

[2] = tested on: common lambsquarters (CHEAL); test: Greenhouse postemergence weed control, common lambsquarters; format: in vivo; details: 800 g ae/ha, no adjuvant, 21 DAA
Protocol: as §1, §2, §3

sicklepod (CASOB) = test: Greenhouse postemergence weed control, sicklepod; format: in vivo; details: 800 g ae/ha, no adjuvant, 21 DAA
Protocol: as §1, §2, §3

common ragweed (AMBTR) = test: Greenhouse postemergence weed control, common ragweed; format: in vivo; details: 800 g ae/ha, no adjuvant, 21 DAA
Protocol: as §1, §2, §3

Compound | Rate of Loss [1] [µg/min] | % Control AMARE (redroot pigweed (AMARE)) [%] | % Control CHEAL [2] [%] | % Control CASOB (sicklepod (CASOB)) [%] | % Control AMBTR (common ragweed (AMBTR)) [%]
O=C(O)COc1ccc(Cl)cc1Cl [2,4-D Acid, 2,4-dichlorophenoxyacetic acid] | 2.29 |  |  |  | 
C[N+](C)(C)CCO.O=C([O-])COc1ccc(Cl)cc1Cl [2,4-D Choline] |  | 95 | 74 |  | 
CNC.O=C(O)COc1ccc(Cl)cc1Cl [2,4-D DMA, 2,4-D dimethylammonium] | 1.5 | 91 | 73 | 95 | 100
CN(C)CCO.O=C(O)COc1ccc(Cl)cc1Cl [2,4-D DMEA, 2,4-D dimethylethanolammonium] | 0.905 |  |  |  | 
CCCCC(CC)COC(=O)COc1ccc(Cl)cc1Cl (stereo not drawn) [2,4-D EHE, 2,4-D ethylhexyl ester] | 11 |  |  |  | 
O=C(O)COc1ccc(Cl)cc1Cl.O=C([O-])COc1ccc(Cl)cc1Cl.[K+] [2,4-D K Half Salt, 2,4-D Potassium Half Salt] | 0.132 | 91 | 84 | 100 | 100
N.O=C(O)COc1ccc(Cl)cc1Cl.O=C(O)COc1ccc(Cl)cc1Cl [2,4-D NH4 half-salt] |  | 91 | 74 | 100 | 100
N.O=C(O)COc1ccc(Cl)cc1Cl [2,4-D NH4] |  | 95 | 92 | 100 | 99
O=C(O)COc1ccc(Cl)cc1Cl.O=C([O-])COc1ccc(Cl)cc1Cl.[Na+] [2,4-D Na half-salt, 2,4-D Sodium Half Salt] |  | 92 | 85 | 100 | 100
